Assay results published in patent publication US5079257A, “Indoloquinone compounds” (priority 1986, dated 1992).
In brackets after ≈: the same amount, converted by molar mass. Where two headings read alike, the source gives them in different places.

Assays:
[1] = test system: T 24 cells; bladder carcinoma; assay: In vitro panel of human tumour lines (TNO): T 24; format: cell-based; settings: about 72 hours; further: key: -: no inhibition of cell growth; +: total cell-kill
Experimental: (§1) Compounds E.O. 1, E.O. 2, E.O. 4, E.O. 4A, E.O. 8, E.O. 9, […], E.O. 33, and E.O. 35 were tested for their activity against five human tumour cell lines at the Radiobiological Institute TNO Rijswijk.
(§2) The new in vitro prescreen uses human tumour clones; it was set up by Dr. P. Lelieveld at TNO Rijswijk and comprises testing compounds in a bioliquid assay for their cytostatic activity against the following five human tumour lines:
(§3) After a continuous exposure to the drugs to be tested and to Adriamycin in `24 well tissue culture clusters, type 3524 (Costar)`, the remaining cells are fixed and stained. Using increasing drug concentrations the inhibiting concentration can be estimated qualitatively.
(§4) Cells: the human tumour cells are maintained in Dulbecco's medium supplemented with 10 percent foetal calf serum.
(§5) A, T and Z cell suspensions: 5·10^4 cells/ml
(§6) The cells were grafted into 16 mm wells for 48 hours (0.5 ml cell suspension per well was used).
(§7) Drugs: the compound to be tested was dissolved in appropriate concentrations in a mixture of Hepes-buffered Hanks' balanced salt solution and ethanol. The drug solutions (0.05 ml) were added to the different wells. The final ethanol concentration in each well was less than one percent.
(§8) The cells were continuously incubated with the compound under test at 37° in an atmosphere of 10 percent CO2 in humidified air for about 72 hours.
(§9) Determination of the inhibiting dose: the cells were fixed and stained with a solution of crystal violet in methanol/formaldehyde.

[2] = test system: WiDr cells; colon tumour; assay: In vitro panel of human tumour lines (TNO): WiDr; format: cell-based; settings: about 72 hours; further: key: -: no inhibition of cell growth; +: total cell-kill
Experimental: as §1, §2, §3, §4
(§10) M and W cell suspensions: 10^5 cells/ml.
as §6, §7, §8, §9

[3] = test system: IgR37 cells melanoma; assay: In vitro panel of human tumour lines (TNO): IgR-37; format: cell-based; settings: about 72 hours; further: key: -: no inhibition of cell growth; +: total cell-kill
Experimental: as §1, §2, §3, §4, §5, §6, §7, §8, §9

[4] = test system: R-1 cells (Rhabdomyosarcoma Cells); assay: R-1 activity (bioliquid assay), cytotoxicity; format: cell-based; settings: Rhabdomyosarcoma cell
Description: The indoloquinones II (formula II) have been tested in respect of their cytotoxic activity against L1210 cells and R-1 cells (Rhabdomyosarcoma Cells) in a bioliquid assay at the department of oncology of the Free University of Amsterdam (Table I). […] (Table II). Eight indoloquinones (E.O. 1, E.O. 2, E.O. 4, E.O. 4A, E.O. 8, E.O. 9, E.O. 33 and E.O. 35) have been tested in a panel of five human tumour lines (TNO Rijswijk; Table III).
For the determination of the R-1 activity, Rhabdomyosarcoma cells were brought into Falcon multiwells (growth area: 9.6 cm^2) (~10^6 cells per dish) containing 3 ml of Dulbecco's medium supplemented with 10% Foeto Calf Serum (FCS). […] Thereupon the drug solution was removed and the cells were covered with fresh medium. After 48 hours the cells were trypsinized and counted on a Sysmex microcell counter (CC110).
(§11) The in vitro L1210 and R-1 activities of the indoloquinones (formula III), were also determined in the bioliquid assays as described above.

[5] = test system: L1210 cells; assay: L1210 activity (bioliquid assay), cytotoxicity; format: cell-based; settings: Mus musculus
Description: The indoloquinones II (formula II) have been tested in respect of their cytotoxic activity against L1210 cells and R-1 cells (Rhabdomyosarcoma Cells) in a bioliquid assay at the department of oncology of the Free University of Amsterdam (Table I). In addition to this seven compounds (E.O. 1, E.O. 2, E.O. 4, E.O. 7, E.O. 9, E.O. 16 and E.O. 17) have been tested on L1210 activity in a clonogenic assay at TNO, Rijswijk. Further, the lowest active doses of the compounds E.O. 1, E.O. 2, E.O. 4 and E.O. 9 have been determined at TNO Rijswijk, according to the method described by Lamberts et al. [Oncology, 40, 301 (1983)]. (Table II). Eight indoloquinones (E.O. 1, E.O. 2, E.O. 4, E.O. 4A, E.O. 8, E.O. 9, E.O. 33 and E.O. 35) have been tested in a panel of five human tumour lines (TNO Rijswijk; Table III). From the latter group three indoloquinones (E.O. 1, E.O. 4 and E.O. 9) have been selected for a cytotoxicity study, involving five slowly growing human tumour lines (University of Freiburg; Table IV).
For this purpose, L1210 cells were grown, as suspension, in Falcon multi-wells (growth area: 9.6 cm^2) using RPMI supplemented with 15% FCS and 2-mercapto-ethanol (60 μmol) as medium. In this medium, the cells were continuously incubated with the compound to be tested at 37° C. in an atmosphere of 5% CO2 in humidified air for 48 hours. Thereupon they were counted on a Sysmex microcell counter (CC110).
as §11

[6] = Half-wave reduction potentials / polarography (University of Utrecht); format: physicochemical; settings: for E1/2, halve wave reduction potential: Table IA, only the first (quinone) reduction potential
Description: *The halve wave reduction potentials (E1/2) have been determined at the
Pharmaceutical Laboratory of University of Utrecht. Only the first
(quinone) reduction potential has been given.
Additional evidence for the occurrence of a bioreductive activation mechanism during the cytotoxic action of indoloquinones (II) was obtained via electrochemical studies, which have been carried out at the Pharmaceutical Laboratory of the University of Utrecht. […]

[7] = test system: MCF7 breast cancer cells; assay: In vitro panel of human tumour lines (TNO): MCF-7; format: cell-based; settings: about 72 hours; further: key: -: no inhibition of cell growth; +: total cell-kill
Experimental: as §1, §2, §3, §4, §10, §6, §7, §8, §9

[8] = Table IA, para-indoloquinone diesters, read-out: ID-50 R-1
[9] = L1210, 48 h, Table IA, para-indoloquinone diesters, read-out: ID-50 L1210

In the case of `CCC1(O)CC2CN(CCc3c([nH]c4ccccc34)C(C(=O)OC)(c3cc4c(cc3OC)N(C=O)C3C(O)(C(=O)OC)C(OC(C)=O)C5(CC)C=CCN6CCC43C65)C2)C1` (stereo not shown) [Vincrist., reference compound], the “in vitro activity score, T 24” value ([1]; 0.01 μg/ml) is reported as “-”, the “in vitro activity score, T 24” value ([1]; 0.1 μg/ml) is reported as “+” and the “in vitro activity score, WiDr” value ([2]; 0.01 μg/ml) is reported as “+”. The “in vitro activity score, WiDr” value ([2]; 0.1 μg/ml) was “+”, the “in vitro activity score, IgR-37” value ([3]; 0.01 μg/ml) was “+” and the “in vitro activity score, IgR-37” value ([3]; 0.1 μg/ml) was “+”.
For `COC(=O)/C=C/c1c(C(=O)OC)c2c(n1C)C(=O)C=C(OC)C2=O` [E.O. 14, Methyl 5-methoxy-3-methoxycarbonyl-1-methyl-2-[1H-indole-4,7-dione]acrylate], the IC50 [4, 8] was greater than 10 µg/mL, the IC50 [5, 9] was 0.8 µg/mL (≈ 2.4 µM) and the “E1/2, halve wave reduction potential” value [6] was -243 mV.
For `COC(=O)/C=C/c1[nH]c2c(c1C(=O)OC)C(=O)C(OC)=CC2=O` [E.O. 29, Methyl 5-methoxy-3-methoxycarbonyl-2-[1H-indole-4,7-dione]acrylate], the IC50 [4, 8] was 4.9 µg/mL (≈ 15.3 µM), the IC50 [5, 9] was 2.2 µg/mL (≈ 6.89 µM) and the “E1/2, halve wave reduction potential” value [6] was -211 mV.
Compound `Cn1c(/C=C/CO)c(CO)c2c1C(=O)C=C(N1CCOCC1)C2=O` [E.O. 12, 3-Hydroxymethyl-1-methyl-5-morpholino-2-[1H-indole-4,7-dione]prop-β-en-α-ol] has an IC50 ([4]; Table I, bioliquid assay, read-out: ID-50 R-1) greater than 10 µg/mL, an IC50 ([4]; Table VI, read-out: ID-50 R-1) greater than 10 µg/mL and an IC50 ([5]; L1210, Table I, bioliquid assay, 48 hours, read-out: ID-50 L1210) of 3.8 µg/mL (≈ 11.4 µM). For the same compound, the “half-wave potential E1.2, wave I” value ([6]; pH = 8 vs Ag/AgCl) was -420 mV.
For `COC(=O)/C=C/c1c(C(=O)OC)c2c(n1C)C(=O)C=C(N1CCOCC1)C2=O` [E.O. 55, Methyl 3-methoxycarbonyl-1-methyl-5-morpholino-2-[1H-indole-4,7-dione]acrylate], the IC50 [4, 8] was 8.9 µg/mL (≈ 22.9 µM), the IC50 [5, 9] was 1.4 µg/mL (≈ 3.6 µM) and the “E1/2, halve wave reduction potential” value [6] was -240 mV.
With `COC(=O)/C=C/c1c(C(=O)OC)c2c(n1C)C(=O)C=C(N1CC1C)C2=O` (stereo not shown) [E.O. 28, Methyl 3-methoxycarbonyl-1-methyl-5-propyleneamino-2-[1H-indole-4,7-dione]acrylate] the IC50 ([4]; read-out: ID-50 R-1, Table IA, para-indoloquinone diesters) was 5.7 µg/mL (≈ 15.9 µM), the IC50 ([5]; L1210, 48 h, read-out: ID-50 L1210, Table IA, para-indoloquinone diesters) was 2.2 µg/mL (≈ 6.14 µM) and the “E1/2, halve wave reduction potential” value [6] was -171 mV.
For `CCC1(O)CC2CN(CCc3c([nH]c4ccccc34)C(C(=O)OC)(c3cc4c(cc3OC)N(C)C3C(O)(C(=O)OC)C(OC(C)=O)C5(CC)C=CCN6CCC43C65)C2)C1` (stereo not shown) [Vinblast., reference compound], the “in vitro activity score, MCF-7” value ([7]; 1.0 μg/ml) was “+”, the “in vitro activity score, MCF-7” value ([7]; 10 μg/ml) was “+” and the “in vitro activity score, T 24” value ([1]; 0.1 μg/ml) was “+”. The “in vitro activity score, WiDr” value ([2]; 0.01 μg/ml) was “+”, the “in vitro activity score, WiDr” value ([2]; 0.1 μg/ml) was “+” and the “in vitro activity score, WiDr” value ([2]; 1.0 μg/ml) was “+”. For the same compound, the “in vitro activity score, WiDr” value ([2]; 10 μg/ml) was “+”, the “in vitro activity score, IgR-37” value ([3]; 0.01 μg/ml) was “+” and the “in vitro activity score, IgR-37” value ([3]; 0.1 μg/ml) was “+”.
